Consider three compounds from patent US6376169B1, “Method for diagnosing a vascular condition” (Queens University at Kingston, priority 1998, dated 2002).

What all share (format): cell-based, human
One test has as its system RTP/Drg1 mRNA. Kind of test: Northern blot of RTP/Drg1 mRNA in MDA-MB-231 cells. As to conditions: for levels of RTP/Drg1 mRNA: 20% oxygen, up to 72 h, 100 μM cobalt chloride, 30 mM Tiron or 100 μM DFO; for effect on hypoxic up-regulation of RTP/Drg1 mRNA: 1% oxygen + 30% CO, 24 h; for effect of CO on up-regulation of RTP/Drg1 mRNA induced by cobalt chloride, Tiron and DFO: hypoxic conditions with CO. How it is done: (§1) To determine whether hypoxia regulates the expression of certain genes (e.g., PAI-1, uPAR, RTP/Drg1) via an iron-containing heme protein, cells were cultured for up to 72 h at 20% oxygen in the presence or absence of either 100 μM cobalt chloride, or 30 mM sodium 4,5-dihydroxybenzene-1,3-disulfonate (Tiron), or 100 μM desferrioxamine mesylate (DFO) (Sigma Chemical CO., St. Louis, Mo.). Further confirmation of the role of a heme protein in hypoxic responses can be achieved by culturing cells under hypoxia in the presence of carbon monoxide, which maintains the heme protein in the oxy state and thereby blocks heme protein-mediated hypoxic responses. Thus, cells were also cultured for 24 h at 37° C. under hypoxic conditions in the presence of 30% carbon monoxide.
Northern Blot Analysis. Total RNA was isolated from cell lines as described above. Aliquots of 20 μg were denatured and subjected to electrophoresis in 1% agarose-formaldehyde gels (Sambrook, J., Fritsch, E. F., and Maniatis, T. Molecular Cloning: A Laboratory Manual, Cold Spring Harbor Laboratory, Cold Spring Harbor, N.Y. (1989)). RNA was transferred to nylon membranes (Micron Separations, Inc., Westboro, Mass.). After prehybridization at 42° C. for 2-3 h in 50% formamide, 5×Denhardt's solution, 0.5% sodium dodecyl sulfate (SDS), 6×SSC (1×SSC: 0.15M NaCl, 15 mM sodium citrate, pH 7.0), and 100 μg/mL denatured salmon sperm DNA, membranes were hybridized for a period of time of overnight (˜18 h) to about 72 h at 42° C. with a cDNA probe (e.g., RTP/Drg1, PAI-1 (PAI-1 cDNA provided by Dr. Keith McCrae, Temple University School of Medicine, Philadelphia, Pa.), uPAR (Higazi A, et al., J Biol Chem 266:12752, (1995)) pre-labeled with [^32P]-dCTP using a Pharmacia Oligolabelling kit (Pharmacia Biotech, Piscataway, N.J.). The hybridization solution contained 6×SSC, 0.5% SDS, 100 μg/mL denatured salmon sperm DNA, 50% formamide and cDNA probe. After hybridization, the membranes were washed with 2×SSC and 0.5% SDS at room temperature for 15 min, 2×SSC and 0.1% SDS at room temperature for 15 min, and 0.1×SSC and 0.5% SDS for 30 min. Dupont Reflection NEF film (Dupont Canada, Inc., Mississauga, ON) was exposed to the membranes for 1-3 days at −80° C. Bands on radiographic film were analyzed using a SigmaGel gel analysis software package (Jandel Scientific Software, San Rafael, Calif.).

In the next test the test system is uPAR mRNA. Kind of test: Northern blot of uPAR mRNA in HTR-8/SVneo cells. The settings on record: 24 h. How it is done: as §1, with “Thus, cells were also cultured for 24 h at 37° C. under hypoxic conditions in the presence of 30% carbon monoxide.” left out
Northern Blot Analysis. Total RNA was isolated from cell lines as described above. […] RNA was transferred to nylon membranes (Micron Separations, Inc., Westboro, Mass.). […] The hybridization solution contained 6×SSC, 0.5% SDS, 100 μg/mL denatured salmon sperm DNA, 50% formamide and cDNA probe. After hybridization, the membranes were washed with 2×SSC and 0.5% SDS at room temperature for 15 min, 2×SSC and 0.1% SDS at room temperature for 15 min, and 0.1×SSC and 0.5% SDS for 30 min. Dupont Reflection NEF film (Dupont Canada, Inc., Mississauga, ON) was exposed to the membranes for 1-3 days at −80° C. Bands on radiographic film were analyzed using a SigmaGel gel analysis software package (Jandel Scientific Software, San Rafael, Calif.).

The test system of another test is HTR-8/SVneo cells. Kind of test: In vitro invasion of HTR-8/SVneo cells through Matrigel. The settings on record: for increase in invasion: 20% oxygen, 100 μM cobalt chloride or 30 mM Tiron; for Invasion Index (%) ± SE: standard = 100. The procedure:
In vitro invasion assay. An assay which employs reconstituted basement membrane (Matrigel; Collaborative Biomedical Products, Bedford, Mass.) as the substrate for invasion was used to determine the effect of hypoxia on the invasiveness of tumor cells. Costar Transwell inserts (6.5 mm diameter polycarbonate membrane, 8 μm pore; Corning Costar Corp., Cambridge, Mass.) were coated with 100 μl of a 1 mg/ml solution of Matrigel diluted in cold serum-free culture medium, placed in the wells of a 24-well tissue culture plate and allowed to air-dry for 12 h in a laminar flow cabinet. After reconstituting the Matrigel by incubating for 1 h with 100 μl of serum-free medium, 5.0×10^4 cells in 100 μl aliquots of serum-containing medium were added to the Transwells. […] Cells which invaded through the Matrigel and the pores of the underlying membrane were fixed for 10 min in Carnoy's fixative (25% acetic acid, 75% methanol) and stained for 3 h in 1% toluidine blue, 1% sodium borate. Following several washes in tap water, the membranes were removed with a small scalpel blade, placed on a microscope slide and coverslipped. The invasion index' was then determined by counting, under a microscope, the total number of stained cells in the underside of the polycarbonate membranes.
Alternatively, cells (e.g., HTR-8/SVneo, MDA-MB-231) were labeled by incubation for 24 h in the presence of 10 μCi/ml [^3H]-thymidine. The cells were then harvested, adjusted to a concentration of 5.0×10^5/ml, and 100 μl aliquots added in triplicate to the upper wells of the invasion chambers. After a 24-h incubation, cells in the upper and lower compartments of the chambers were harvested. The invasion index, reflecting the percentage of added cells which had invaded the Matrigel was determined by measurement of the radioactivity in the upper and lower compartments, as well as in the membrane.

Where [1] appears, read: standard (20% O2) conditions with compound.

In the case of `O=S(=O)([O-])c1cc(O)c(O)c(S(=O)(=O)[O-])c1.[Na+].[Na+]` [Tiron, sodium 4,5-dihydroxybenzene-1,3-disulfonate], the “levels of RTP/Drg1 mRNA” value in the test on RTP/Drg1 mRNA was “time-dependent increases in RTP/Drg1 mRNA”. For the same compound, the “increase in uPAR mRNA vs standard conditions alone” value in the test on uPAR mRNA (setting [1]) was greater than 10 fold. The compound also gave an increase in invasion with HTR-8/SVneo cells of 29.3±12.7%. Besides, in the test with HTR-8/SVneo cells (Standard (20% O2) + compound), the “Invasion Index (%) ± SE” value stood at 129.3 ± 12.7%.

Take `[C-]#[O+]` [carbon monoxide]: in the test with RTP/Drg1 mRNA, the “effect on hypoxic up-regulation of RTP/Drg1 mRNA” value is recorded as “abrogated”; the “effect of CO on up-regulation of RTP/Drg1 mRNA induced by cobalt chloride, Tiron and DFO” value is given as “did not inhibit”. In addition, in the test on RTP/Drg1 mRNA (listed as CO), the “effect on hypoxic up-regulation of RTP/Drg1 mRNA” value is reported as “substantial decrease in mRNA levels”; the “effect of CO on up-regulation of RTP/Drg1 mRNA induced by cobalt chloride, Tiron and DFO” value is on record as “unable to inhibit”. The “reduction of hypoxia-mediated increase in uPAR mRNA” value in the test with uPAR mRNA (1% O2 + 20% carbon monoxide) is listed as 35%. Besides, in the test on uPAR mRNA (hypoxic (1% O2) conditions in the presence of 20% carbon monoxide), the “increase in uPAR mRNA vs standard conditions alone” value turned out to be 1.8 fold. In addition, in the test with HTR-8/SVneo cells (1% oxygen + 20% carbon monoxide), the “inhibition of hypoxia-stimulated invasion” value came to 87%. Further, in the test with HTR-8/SVneo cells (Hypoxia (1% O2) + 20% CO), the “Invasion Index (%) ± SE” value turned out to be 104.0 ± 8.5%.

Take `[Cl][Co][Cl]` [cobalt chloride]: the “levels of RTP/Drg1 mRNA” value in the test with RTP/Drg1 mRNA is “time-dependent increases in RTP/Drg1 mRNA”. In addition, the “increase in uPAR mRNA vs standard conditions alone” value with uPAR mRNA (setting [1]) amounted to 3.5 fold. The compound further displayed an increase in invasion in the test with HTR-8/SVneo cells of 24.6±8.4%. Also, the “Invasion Index (%) ± SE” value in the test on HTR-8/SVneo cells (Standard (20% O2) + compound) came out at 124.6 ± 8.4%.
